Assay [1] has as its target T1, HDAC2 (Homo sapiens, UniProt Q92769). Briefly: Endogenous HDAC2 activity assay (luminescence) in SHSY5Y cells. Conditions: not reduced by DTT; 30 min of treatment. The format is cell-based. Also on record: endogenous in cells; host or cells: SHSY5Y. The method, then: Next, JRM-28 in the presence of DTT was evaluated by cytotoxicity assays. A TUNEL assay was performed with SHSY5Y neuronal cells using increasing concentrations of JRM-28 in the presence of DTT. […] The results were further confirmed by quantitative analysis (Figure 4B). […] Next, we wanted to study the effect of lower concentrations of […] on the regulation of HDAC2 activity. […] To further confirm this finding, we performed a luminescence-based HDAC2 activity assay in SHSY5Y cells with increasing doses of JRM-28. JRM-28 was not reduced by DTT during the treatment, as the cellular reductase and oxidoreductase enzymes are expected to reduce JRM-28 in its “active 28a/b” components. […]
Figure 4 Exploring the cytotoxicity of JRM-28. SHSY5Y neurons were treated with different doses of JRM-28 for 24 h and then analyzed for different cytotoxicity assays. […] TUNEL^+ve cells were detected as condensed brown bodies, whereas nuclei were stained with hematoxylin (blue). (B) TUNEL bodies were counted per 10 randomly selected cells in 20 different images. Results were plotted as a dotted boxplot, and the significance of the mean was analyzed by one-way ANOVA (single effector = treatment). **** p < 0.00001 versus DMSO control. […] (E) The band density of individual HDAC2 bands was assessed in ImageJ software (version 1.45) followed by normalization with respective β-actin band density. […]

Another assay concerns iPSC-derived AD neurons. Briefly: Dual immunofluorescence in iPSC-derived AD neurons (A246E psen1). The format is cell-based, human. The method, then:
Primary neuronal cell culture was performed based on a protocol approved by the Institutional Animal Care and Use Committee (IACUC) of the University of Wisconsin-Milwaukee, Milwaukee, WI-53211, and by the guidelines set by the National Institute of Health. Embryonic day 18 (E18) fetuses were harvested, and hippocampal tissue was dissected from brains and then processed for single cell culture in poly-D-lysine-coated plates, as discussed elsewhere. Neuronal cells were maintained with B-27^TM-plus-supplemented complete neurobasal media for 7–10 days until fully differentiated. After that, the treatment with JRM-28 was performed. SHSY5Y cells were grown, maintained, and passaged with complete DMEM media (a bottle of DMEM supplemented with 10% FBS, 2 mM L-glutamine, and 100 units/mL antibiotics); otherwise, for neuronal differentiation study, SHSY5Y was seeded with complete neurobasal medium. For making AD neurons, commercially purchased (Axol Bioscience Ltd.) A246E psen1 neural stem cells (NSCs) were maintained with KnockOut^TM DMEM/F12 media supplemented with StemPro^TM Neural Supplement, bFGF, EGF, 2 mM GlutMAX^TM supplement, and 10 mL/L antibiotic-antimycotic solution. These […] NSCs were grown in a […] cell culture flask coated with Geltrex^TM matrix until fully confluent and then detached by Accutase, centrifuged, washed, and plated in a poly-D-lysine-coated plate supplemented with complete neurobasal media for neuronal differentiation. After one week, when neurons were differentiated, JRM-28 treatment was conducted.
Immunofluorescence analysis was performed as described earlier. Briefly, cells cultured on coverslip contained in six-well plates (Lab-Tek II) were fixed with 4% paraformaldehyde for 20 min followed by two rinses in TBST. Samples were incubated in a 1:1 solution of TBST and blocking buffer containing rabbit anti-NR2A (1:250), anti-GluR1 (1:250), ant-HDAC2 (1:250), anti-CREB (1:250), and anti-MAP2 (1:250) for 2 h at 37 °C. After three washes in PBST (15 min each), slides were further incubated with FIT-C and TRIT-C-conjugated secondary antibodies. For negative controls, a set of culture slides was incubated under similar conditions with secondary antibodies and without the primary antibodies (Table 3). The samples were mounted and observed under an Accuscope fluorescent microscope. The images were captured and merged in CaptaVision^TM imaging software.

The target in assay [2] is T1, HDAC2. The experiment in a line: Fluorimetric HDAC inhibition assay, HDAC2. The format is biochemical. Also on record: purchased BPS Bioscience 50034 (HDAC Fluorogenic Assay Kit; enzyme supplied with kit). Conditions: reduced with DTT. The method, then:
The inhibition of HDAC1, 2, 3, and 6 by JRM-28 was fluorometrically measured using the HDAC Fluorogenic Assay Kit (Catalog# 50034) by BPS bioscience. Purified recombinant human HDAC1 (Cat# 50051), HDAC3 (Cat# 50003), and HDAC6 (Cat# 50056) were also obtained from BPS Bioscience. The enzyme inhibition assay was performed according to the manufacturer’s protocol. […] Purified recombinant HDAC2 (supplied with the fluorogenic kit) was diluted to 6 ng/µL (5 µL/well with the supplied HDAC assay buffer). HDAC 1, 3, and 6 were also diluted to the optimized concentration (5 µL/well) with the HDAC assay buffer. The activity of JRM-28 was measured along with DTT control and DMSO as blank. After adding 5 µL of the diluted HDAC enzymes in designated wells, the 96-well plate (supplied with the kit) was incubated at 37 °C. Then, the reaction was initiated by adding 5 µL of diluted HDAC substrate to each well, followed by another incubation at 37 °C for 30 min. Next, 50 µL of the developer reagent was added to each well and incubated at room temperature for another 15 min. Finally, fluorescence was measured by a microplate absorbance spectrophotometer (PerkinElmer Enspire 2300 Multilabel Multimode Microplate Reader) with an excitation at λ = 485 nm and detection at λ = 528 nm.

Values joined by “and” are separate entries in the source; they are usually repeats but may differ in a detail not shown here. Equal entries are not always repeated.

As usually defined, the IC50 is the midpoint of a concentration-inhibition curve. Low readings indicate greater potency in that assay, high ones weaker potency in that assay.

T1 sequence (Q92769 whole entry): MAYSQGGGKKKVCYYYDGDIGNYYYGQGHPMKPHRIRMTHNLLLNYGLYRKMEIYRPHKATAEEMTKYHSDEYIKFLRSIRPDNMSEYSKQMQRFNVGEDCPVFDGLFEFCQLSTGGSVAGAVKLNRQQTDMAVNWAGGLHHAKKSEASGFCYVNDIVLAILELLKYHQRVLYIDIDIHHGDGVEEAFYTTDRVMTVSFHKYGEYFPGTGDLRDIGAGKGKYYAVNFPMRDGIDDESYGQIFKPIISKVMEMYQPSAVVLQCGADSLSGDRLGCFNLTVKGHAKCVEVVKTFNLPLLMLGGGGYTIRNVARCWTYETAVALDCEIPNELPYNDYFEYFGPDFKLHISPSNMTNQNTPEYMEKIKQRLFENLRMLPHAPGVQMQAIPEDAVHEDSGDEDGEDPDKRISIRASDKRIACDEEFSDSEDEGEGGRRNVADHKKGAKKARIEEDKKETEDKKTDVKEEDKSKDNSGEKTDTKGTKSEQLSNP

`CN(C(=O)CC(O)/C=C/CCSS(=O)(=O)CC/C=C/C(O)CC(=O)N(C)c1ccccc1)c1ccccc1` (stereo not drawn) [JRM-28, S-((E)-5-hydroxy-7-(methyl(phenyl)amino)-7-oxohept-3-en-1-yl) (E)-5-hydroxy-7-(methyl(phenyl)amino)-7-oxohept-3-ene-1-sulfonothioate] registered a 50% inhibitory concentration (IC50) against HDAC2 [1] of 5.44 µM. Also, in the assay with iPSC-derived AD neurons (5 µM), the “expressions of ionotropic glutamate receptors (NR2A, GluR1)” value was “augmented the expressions of ionotropic glutamate receptors” and the “length of MAP2-ir basal dendrites” value is on record as “increase the length of MAP2-ir basal dendrites”. In the assay with iPSC-derived AD neurons (5 μM, 24 h (legend: 48 h)), the “CREB expression (dual IF)” value was “strong upregulation of CREB” and the “HDAC2 expression (dual IF)” value is on record as “significant downregulation of HDAC2”. Besides, the IC50 at HDAC2 [2] is ~0.107 µM and 0.107 µM. On HDAC2 [2] (listed as JRM-28 (JRM-28a+28b)), the “Hill slope HDAC2 (fluorimetric)” value is reported as −1.580.

Source of the values: paper PMC11640089, “JRM-28, a Novel HDAC2 Inhibitor, Upregulates Plasticity-Associated Proteins in Hippocampal Neurons and Enhances Morphological Plasticity via Activation of CREB: Implications for Alzheimer’s Disease” (Cells, 2024).
